In PMC467089, “Click estradiol dimers with novel aromatic bridging units: synthesis and anticancer evaluation” (Journal of Enzyme Inhibition and Medicinal Chemistry, 2024):
Entries after “also recorded” stand apart in the source; their conditions may differ.

Assays:
porcine brain tubulin = target: T1, porcine brain tubulin (Sus scrofa, UniProt P02550+P02554); test: Tubulin polymerisation assay; assay type: biochemical; details: 10 μmol/L, Vmax relative to DMSO
T1 construct: purchased Cytoskeleton, Denver, CO; host or cells: porcine brain (tissue-purified)
Outline: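 Test compounds (10 μmol/L) or DMSO vehicle added to >99% pure porcine brain tubulin. Polymerisation read at 37 °C on a plate reader, and Vmax taken from each curve.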

[1] = MTS cytotoxicity assay, BJ; assay type: cell-based; details: human
Outline: (§1)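 Viability is measured by MTS after cells, seeded overnight, receive fourfold-diluted compounds for 72 h at 37 °C.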

[2] = MTS cytotoxicity assay, MRC-5; assay type: cell-based; details: human
Outline: (§2)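 Culture medium carried 10% foetal calf serum plus antibiotics. Treatment lasted 72 h with a fourfold dilution series, followed by MTS detection, in technical duplicate across three biological replicates.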

CCRF-CEM lymphoblasts [3] = test: BrDU incorporation analysis (DNA synthesis); assay type: cell-based, human
Outline: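 CCRF-CEM cells exposed to compounds for 24 h, pulse-labelled 30 min before harvest with 10 μM BrDU, ethanol-fixed, HCl-denatured, stained with anti-BrdU/FITC plus propidium iodide and RNase. Flow cytometry (488 nm) gives the percentage of BrDU-positive cells.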

CCRF-CEM lymphoblasts [4] = test: Cell cycle analysis by flow cytometry (propidium iodide); assay type: cell-based, human
Outline: (§3)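 CCRF-CEM cells treated 24 h, then fixed in cold 70% ethanol, permeabilised with 0.25% Triton X-100 and stained with anti-phospho-histone H3 (Ser10). After 50 μg/mL RNase and propidium iodide, analysed by flow cytometry at 488 nm; sub-G1 events counted as non-viable with fragmented DNA.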

CCRF-CEM lymphoblasts [5] = test: Phospho-histone H3 (Ser10) mitotic marker, flow cytometry; assay type: cell-based, human
Outline: as §3

U2OS (osteosarcoma) = test: MTS cytotoxicity assay, U2OS; assay type: cell-based, human; details: for IC50: Homo sapiens, U2OS, 72 h, read-out: IC50 cytotoxic activity U2OS
Outline: as §1

[6] = system: HCT116p53−/− (p53 gene null variant of HCT116); test: MTS cytotoxicity assay, HCT116p53−/−; assay type: cell-based; details: Homo sapiens, HCT-116, 72 h, read-out: IC50 cytotoxic activity HCT116p53-
Outline: as §2

[7] = system: K562 (chronic myelogenous leukaemia); test: MTS cytotoxicity assay, K562; assay type: cell-based; details: Homo sapiens, K562, 72 h, read-out: IC50 cytotoxic activity K562
Outline: as §2

[8] = system: A549 (lung adenocarcinoma); test: MTS cytotoxicity assay, A549; assay type: cell-based, human; details: for IC50: Homo sapiens, A549, 72 h, read-out: IC50 cytotoxic activity A549
Outline: as §1

[9] = MTS cytotoxicity assay, HUVEC; assay type: cell-based; details: human
Outline: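 Overnight-seeded cells → fourfold serial compound dilutions (DMSO) → 72 h, 37 °C, 5% CO2 → MTS added. Duplicates ×3 biological reps.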

[10] = system: CEM-DNR (daunorubicin resistant variant of CCRF-CEM); test: MTS cytotoxicity assay, CEM-DNR; assay type: cell-based, human; details: Homo sapiens, CEM-DNR, 72 h, read-out: IC50 cytotoxic activity CEM-DNR
Outline: as §1

[11] = system: CCRF-CEM (childhood T-cell acute lymphoblastic leukaemia); test: MTS cytotoxicity assay, CCRF-CEM; assay type: cell-based; details: Homo sapiens, 72 h, read-out: IC50 cytotoxic activity CCRF-CEM
Outline: as §2

[12] = system: HCT116 (colorectal adenocarcinoma); test: MTS cytotoxicity assay, HCT116; assay type: cell-based; details: Homo sapiens, HCT-116, 72 h, read-out: IC50 cytotoxic activity HCT116
Outline: as §2

[13] = system: K562-TAX (paclitaxel-resistant variant of K562); test: MTS cytotoxicity assay, K562-TAX; assay type: cell-based, human; details: for IC50: Homo sapiens, K562-Tax, 72 h, read-out: IC50 cytotoxic activity K562-TAX
Outline: as §1

CCRF-CEM lymphoblasts [14] = test: BrU incorporation analysis (RNA synthesis); assay type: cell-based, human
Outline: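 CCRF-CEM cells were treated with compounds for 24 h, then pulsed with 1 mM BrU for 30 min and fixed in 1% paraformaldehyde/0.05% NP-40. BrU was detected with a cross-reacting anti-BrdU antibody and FITC secondary, with propidium iodide/RNase counterstain; value is percentage of BrU-positive cells by flow cytometry.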

T1 sequence (P02550 whole entry): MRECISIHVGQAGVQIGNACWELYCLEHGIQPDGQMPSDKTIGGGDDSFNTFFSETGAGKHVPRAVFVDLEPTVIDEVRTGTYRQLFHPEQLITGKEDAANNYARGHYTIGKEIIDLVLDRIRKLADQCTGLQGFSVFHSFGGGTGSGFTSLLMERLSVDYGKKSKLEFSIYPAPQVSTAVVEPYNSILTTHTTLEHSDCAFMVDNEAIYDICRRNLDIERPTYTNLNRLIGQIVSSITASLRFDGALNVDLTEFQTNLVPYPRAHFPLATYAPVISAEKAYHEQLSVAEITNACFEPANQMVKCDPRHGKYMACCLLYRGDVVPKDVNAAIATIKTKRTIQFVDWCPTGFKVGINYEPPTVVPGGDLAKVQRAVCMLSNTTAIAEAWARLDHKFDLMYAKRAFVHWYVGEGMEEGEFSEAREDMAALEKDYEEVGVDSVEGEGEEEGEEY
T1 sequence (P02554 whole entry): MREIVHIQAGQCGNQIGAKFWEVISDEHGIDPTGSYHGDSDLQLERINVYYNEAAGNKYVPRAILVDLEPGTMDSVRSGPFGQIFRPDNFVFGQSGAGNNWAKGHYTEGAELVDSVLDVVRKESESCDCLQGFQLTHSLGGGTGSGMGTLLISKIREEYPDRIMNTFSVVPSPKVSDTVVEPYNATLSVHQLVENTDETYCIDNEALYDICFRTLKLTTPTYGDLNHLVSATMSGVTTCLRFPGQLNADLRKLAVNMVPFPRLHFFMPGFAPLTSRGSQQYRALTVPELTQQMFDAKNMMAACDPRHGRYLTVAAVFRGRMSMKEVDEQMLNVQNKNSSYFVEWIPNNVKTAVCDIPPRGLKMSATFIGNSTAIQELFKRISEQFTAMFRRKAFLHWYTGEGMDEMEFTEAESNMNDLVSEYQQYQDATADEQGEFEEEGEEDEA

SMILES	inhibitory activity against tubulin polymerisation (in words) (porcine brain tubulin)	IC50 at 72 h [1] [µM]	IC50 at 72 h [2] [µM]	BrDU, % of positive cells (CCRF-CEM lymphoblasts [3]; 1×IC50, 24 h) [%]	BrDU, % of positive cells (CCRF-CEM lymphoblasts [3]; 5×IC50, 24 h) [%]	<G1 (sub-G1, fragmented DNA), % of positive cells (CCRF-CEM lymphoblasts [4]; 1×IC50, 24 h) [%]	>G2/M (polyploidy), % of positive cells (CCRF-CEM lymphoblasts [4]; 1×IC50, 24 h) [%]	G0/G1, % of positive cells (CCRF-CEM lymphoblasts [4]; 1×IC50, 24 h) [%]	G2/M, % of positive cells (CCRF-CEM lymphoblasts [4]; 1×IC50, 24 h) [%]	S, % of positive cells (CCRF-CEM lymphoblasts [4]; 1×IC50, 24 h) [%]	<G1 (sub-G1, fragmented DNA), % of positive cells (CCRF-CEM lymphoblasts [4]; 5×IC50, 24 h) [%]	>G2/M (polyploidy), % of positive cells (CCRF-CEM lymphoblasts [4]; 5×IC50, 24 h) [%]	G0/G1, % of positive cells (CCRF-CEM lymphoblasts [4]; 5×IC50, 24 h) [%]	G2/M, % of positive cells (CCRF-CEM lymphoblasts [4]; 5×IC50, 24 h) [%]	S, % of positive cells (CCRF-CEM lymphoblasts [4]; 5×IC50, 24 h) [%]	pH3Ser10, % of positive cells (CCRF-CEM lymphoblasts [5]; 1×IC50, 24 h) [%]	pH3Ser10, % of positive cells (CCRF-CEM lymphoblasts [5]; 5×IC50, 24 h) [%]	IC50 (U2OS (osteosarcoma)) [µM]	IC50 [6] [µM]	IC50 [7] [µM]	also measured
CC(=O)Oc1c(Cn2cc([C@]3(O)CC[C@H]4[C@@H]5CCc6cc(O)ccc6[C@H]5CC[C@@]43C)nn2)cc(C)cc1Cn1cc([C@]2(O)CC[C@H]3[C@@H]4CCc5cc(O)ccc5[C@H]4CC[C@@]32C)nn1 [ED7, 2,6-Bis({4-[(17β)-3,17-dihydroxyestra-1,3,5(10)-trien-17-yl]-1H-1,2,3-triazol-1-yl}methyl)-4-methylphenyl acetate]	comparable or better inhibitory activity	> 50	> 50	9.50	5.65	40.74	7.12	32.36	33.76	33.88	45.33	7.43	32.48	32.87	34.65	0.68	11.22	3.86 ± 1.39	1.79 ± 0.17	0.77 ± 0.13	IC50 [8]: > 50 µM; IC50 at 72 h [9]: 0.014 ± 0.002 µM; IC50 [10]: > 50 µM; IC50 [11]: 1.29 ± 0.13 µM; IC50 [12]: 1.61 ± 0.087 µM; IC50 [13]: > 50 µM; BrU, % of positive cells (CCRF-CEM lymphoblasts [14]; 1×IC50, 24 h): 52.67%; BrU, % of positive cells (CCRF-CEM lymphoblasts [14]; 5×IC50, 24 h): 27.20%
CC(=O)Oc1cc(Cn2cc([C@]3(O)CC[C@H]4[C@@H]5CCc6cc(O)ccc6[C@H]5CC[C@@]43C)nn2)cc(Cn2cc([C@]3(O)CC[C@H]4[C@@H]5CCc6cc(O)ccc6[C@H]5CC[C@@]43C)nn2)c1 [ED4, 3,5-Bis({4-[(17β)-3,17-dihydroxyestra-1,3,5(10)-trien-17-yl]-1H-1,2,3-triazol-1-yl}methyl)phenyl acetate]	comparable or better inhibitory activity	> 50	> 50	26.50	7.16	61.81	6.75	25.61	40.50	33.89	31.27	10.24	8.75	71.41	19.84	1.25	0.12	> 50	2.15 ± 0.1	0.49 ± 0.04	mitosis-specific phosphorylation of histone H3 (in words) (CCRF-CEM lymphoblasts [5]; 1× and 5×IC50, 24 h): did not induce an increase of mitosis-specific phosphorylation of histone H3; IC50 cytotoxic activity U2OS (U2OS (osteosarcoma)): did not exhibit activity; IC50 cytotoxic activity A549 [8]: did not exhibit activity; IC50 [8]: > 50 µM; IC50 at 72 h [9]: 0.016 ± 0.006 µM; IC50 [10]: > 50 µM; IC50 [11]: 1.09 ± 0.11 µM; IC50 [12]: 2.06 ± 0.18 µM; IC50 [13]: > 50 µM; BrU, % of positive cells (CCRF-CEM lymphoblasts [14]; 1×IC50, 24 h): 66.58%; BrU, % of positive cells (CCRF-CEM lymphoblasts [14]; 5×IC50, 24 h): 3.26%
C[C@]12CC[C@@H]3c4ccc(O)cc4CC[C@H]3[C@@H]1CC[C@@]2(O)c1cn(Cc2cccc(Cn3cc([C@]4(O)CC[C@H]5[C@@H]6CCc7cc(O)ccc7[C@H]6CC[C@@]54C)nn3)c2)nn1 [ED1, (17β,17′β)-17,17′-[Benzene-1,3-diylbis(methanediyl-1H-1,2,3-triazole-1,4-diyl)]bisestra-1,3,5(10)-triene-3,17-diol]	comparable or better inhibitory activity	> 50	> 50	38.15	6.70	55.53	10.7	0.28	74.70	25.01	64.75	17.65	0.27	75.07	24.67	61.09	64.45	1.95 ± 0.44	1.5 ± 0.32	1.63 ± 0.12	IC50 [8]: 1.68 ± 0.2 µM; IC50 at 72 h [9]: 0.0135 ± 0.002 µM; IC50 [10]: > 50 µM; IC50 [11]: 1.6 ± 0.27 µM; IC50 [12]: 1.41 ± 0.3 µM; IC50 cytotoxic activity K562-TAX [13]: sensitive; IC50 [13]: 1.58 ± 0.16 µM; BrU, % of positive cells (CCRF-CEM lymphoblasts [14]; 1×IC50, 24 h): 48.16%; BrU, % of positive cells (CCRF-CEM lymphoblasts [14]; 5×IC50, 24 h): 31.42%
C[C@]12CC[C@@H]3c4ccc(O)cc4CC[C@H]3[C@@H]1CC[C@@]2(O)c1cn(Cc2ccc(O)c(Cn3cc([C@]4(O)CC[C@H]5[C@@H]6CCc7cc(O)ccc7[C@H]6CC[C@@]54C)nn3)n2)nn1 [ED12, 17,17′-[(3-Hydroxypyridine-2,6-diyl)bis(methylene-1H-1,2,3-triazole-1,4-diyl)]di[estra-1,3,5(10)-triene-3,17β-diol]]	comparable or better inhibitory activity; also recorded: comparable to that of the original ED	11.3 ± 1.41	14.2 ± 3.52	12.43	7.46	11.00	17.19	4.79	66.70	28.50	16.07	14.18	22.95	32.79	44.26	13.49	47.08	16.8 ± 3.46	10.5 ± 2.48	4.52 ± 0.64	IC50 [8]: > 50 µM; IC50 at 72 h [9]: 0.657 ± 0.132 µM; IC50 [10]: > 50 µM; IC50 [11]: 6.14 ± 0.93 µM; IC50 [12]: 8.78 ± 0.88 µM; IC50 [13]: > 50 µM; BrU, % of positive cells (CCRF-CEM lymphoblasts [14]; 1×IC50, 24 h): 33.92%; BrU, % of positive cells (CCRF-CEM lymphoblasts [14]; 5×IC50, 24 h): 8.14%
